Results taken from patent publication EP1506960B1, “Indole compounds as inhibitors of tubulin polymerisation for the treatment of angiogenesis-related disorders” (National Health Research Institutes, priority 2003, dated 2005).
Like-named read-outs stand apart in the source and are kept apart here.

Legend:
KB = assay: Cell growth inhibition assay (cytotoxicity), KB cell line; conditions: Homo sapiens, 72 h, read-out: Cytotoxicity KB
Method: (§1) Cell Growth Inhibition Assay: MCF-7 breast carcinoma cells were maintained in plastic dishes in DMEM medium supplemented with 10% fetal bovine serum. For in vitro treatment, tumor cells were seeded in […] of culture medium/well in 96-well plates to a final cell density of 6 x 10^3 cell/mL and incubated in a CO2 incubator at 37 °C for 24 h. The cells were treated with at least five different concentrations of a test indole compound, and incubated in a CO2 incubator at 37 °C for 72 h. The number of viable cells was estimated using MTS assay and absorbance was measured at 490 nm. Cytotoxicity of the test compounds was expressed in terms of IC50 values. The values presented represent averages of three independent experiments, each with duplicate samples.
(§2) Indole compounds were tested against several panels of drug-resistant cell lines. It is well known that several anti-mitotic agents, including vinca alkaloid (vincristine, vinblastine) and taxol, have been introduced in clinic to treat various human cancers. […] The mechanisms responsible for taxol resistance include overexpression of p-glycoprotein and mutation of tubulin.
(§3) The mechanisms responsible for VP16-resistance (KB7D) were down-regulation of topoisomerase II and overexpression of MRP 1.

KB100 = assay: Cell growth inhibition assay on drug-resistant line KB100; conditions: Homo sapiens, 72 h, read-out: Cytotoxicity KB100
Method: as §1, §2, §3

KB-Vin10 = assay: cells; conditions: read-out: Cytotoxicity KB -Vin10
Method: as §1, §2, §3

KB7D = assay: cells; conditions: Homo sapiens, 72 h, read-out: Cytotoxicity KB7D
Method: as §1, §2, §3

HONECis-6 = assay: Cell growth inhibition assay on drug-resistant line HONECis-6; conditions: read-out: Cytotoxicity HONECis -6, 72 h
Method: as §1, §2, §3

MKN45 stomach cell line = assay: Cell growth inhibition assay (cytotoxicity), MKN45; type: cell-based; conditions: Homo sapiens, MKN-45, Table 2, MTS, 72 h
Method: (§4) In addition, indole compounds described in the "Summary" section were also tested on the A549 lung cell line, MESSA uterine cell line, MKN45 stomach cell line, SW480 colon cell line, NUGC3 stomach cell line, and MESSA/DX5 uterine cell line.

NUGC = assay: Cell growth inhibition assay (cytotoxicity), NUGC; type: cell-based; conditions: Homo sapiens, Table 2, Stomach, MTS, 72 h
Method: as §4

Human MKN45 cancer cells = assay: Tumor regression model, MKN45 xenograft; type: in vivo, Male CD 1 nude mice
Method: (§5) Tumor Regression Models: The procedures of cancer cell implantation were similar to those previously reported in Chen et al., Cancer Res., (1998) 58:2777-2783, with modifications. Male CD 1 nude mice (5~6 weeks old) were purchased from Charles River Laboratories (Wilmington, MA, USA). Human MKN45 and KB cancer cells were maintained in RPMI 1640 plus 10% fetal bovine serum. Each animal was subcutaneously implanted with 5×10^5 MKN45 or 1×10^6 KB cells in 0.1 ml at one flank. Tumor growth was examined three times a week after implantation. The volume of tumor was measured with a caliper and calculated as 1/2×length×width^2 in mm^3. Test compounds were dissolved completely in a vehicle mixture of dimethyl sulfoxide:cremophor:saline (1:4:15). When the size of a growing tumor reached approximately 100 mm^3, the mice were treated with test compounds intravenously from tail veins at a concentration of 50 mg/kg daily for two weeks. Mice in a control group were treated with the solvent vehicle only. Tumor sizes and body weights were measured twice a week and after the mice were sacrificed.

KB100R = assay: Cell growth inhibition assay on line KB100R; conditions: Homo sapiens, 72 h, read-out: Cytotoxicity KB100R
Method: as §1, §2, §3

SW480 colon cell line = assay: Cell growth inhibition assay (cytotoxicity), SW480; type: cell-based; conditions: Homo sapiens, Table 2, MTS, 72 h
Method: as §4

[1] = test system: MESSA/DX5 uterine cell line; assay: Cell growth inhibition assay (cytotoxicity), MESSA/DX5; type: cell-based; conditions: Homo sapiens, MES-SA/Dx5, Table 2, MTS, 72 h
Method: as §4

A549 lung cell line = assay: Cell growth inhibition assay (cytotoxicity), A549; type: cell-based; conditions: Homo sapiens, Table 2, MTS, 72 h
Method: as §4

MESSA uterine cell line = assay: Cell growth inhibition assay (cytotoxicity), MESSA; type: cell-based; conditions: Homo sapiens, MES-SA, Table 2, MTS, 72 h
Method: as §4

KB7DR = assay: Cell growth inhibition assay on line KB7DR; conditions: Homo sapiens, 72 h, read-out: Cytotoxicity KB7DR
Method: as §1, §2, §3

KBtaxol-5 = assay: Cell growth inhibition assay on drug-resistant line KBtaxol-5; conditions: Homo sapiens, 72 h, read-out: Cytotoxicity KBtaxol -5
Method: as §1, §2, §3

[2] = test system: MCF-7 breast carcinoma cells; assay: Cell growth inhibition assay (cytotoxicity), MCF7; type: cell-based; conditions: Homo sapiens, Table 2, MTS, 72 h
Method: In one assay, an indole compound is tested for its cytotoxicity on MCF-7 cells (a breast carcinoma cell line). More specifically, cells are incubated with a test compound for 24 hr. The cytotoxic effect can be determined using the MTS (3-(4,5-dimethylthiazol-2-yl)-5-(3-carboxymethoxyphenyl)-2-(4-sulfophenyl)-2H-tetrazolium, inner salt) assay method described in Goodwin et al. (1995, J. Immunol. Methods. 179: 95-103). Cytotoxicity of the test compound is expressed in terms of IC50 values (i.e., the concentration of the test compound which achieves a half-maximal inhibition of cell growth).

HONE-1 = assay: Cell growth inhibition assay (cytotoxicity), HONE-1 cell line; conditions: Homo sapiens, HONE1, 72 h
Human KB cancer cells = assay: Tumor regression model, KB xenograft; type: in vivo, Male CD 1 nude mice; conditions: Compound 1 and cisplatin together vs cisplatin alone
Method: as §5

| SMILES | IC50 (KB) | IC50 (KB100) | IC50 (KB-Vin10; Homo sapiens, KB-VIN10, 72 h) | IC50 (KB7D) | IC50 (HONECis-6; Homo sapiens) | IC50 (KB7DR) | IC50 (KBtaxol-5) | IC50 (HONE-1; read-out: Cytotoxicity HONE -1) | further results |
| --- | --- | --- | --- | --- | --- | --- | --- | --- | --- |
| CC[C@@]1(O)C(=O)OCc2c1cc1n(c2=O)Cc2cc3ccccc3nc2-1 [CPT, camptothecin] | 26 nM | 1290 nM | 400 nM | 133 nM |  |  |  |  |  |
| N.N.[Cl][Pt][Cl] [Cisplatin, reference compound] |  |  |  |  |  |  |  |  | IC50 (HONECis-6; Table 1, Cis Res., MTS): 15000 nM; IC50 (KB-Vin10; Table 1, Vin. Res, MTS, 72 h): 5 nM |
| COc1ccc2c(C(=O)c3cc(OC)c(OC)c(OC)c3)c[nH]c2c1 [Compound 1, (6-methoxy-1H-indol-3-yl)-(3,4,5-trimethoxy-phenyl)-methanone] | 6 nM | 8 nM | 7 nM | 4 nM | 4.5 nM | 6 nM | 7 nM | 4 nM | IC50 (MKN45 stomach cell line): 4 nM; IC50 (NUGC): 3 nM; activity in inhibiting tumor growth, administered together with cisplatin (Human MKN45 cancer cells; Compound 1 and cisplatin together vs cisplatin alone): higher activity in inhibiting tumor growth than cisplatin administered alone; activity in inhibiting tumor growth (Human MKN45 cancer cells; intravenously 50 mg/kg daily for two weeks, compared with cisplatin): higher activity in inhibiting tumor growth than cisplatin; IC50 (KB100R): 12 nM; IC50 (SW480 colon cell line): 3 nM; IC50 [1]: 3.8 nM; IC50 (A549 lung cell line): 17 nM; IC50 (MESSA uterine cell line): 7 nM; IC50 [2]: 7.6 nM; IC50 (HONE-1; read-out: Cytotoxicity HONE-1): 4 nM; activity in inhibiting tumor growth, administered together with cisplatin (Human KB cancer cells): higher activity in inhibiting tumor growth than cisplatin administered alone |
| COc1ccc2c(C(=O)c3cc(OC)c(OC)c(OC)c3)cn(C(=O)OC(C)(C)C)c2c1 [Compound 6, 6-methoxy-3-(3,4,5-trimethoxy-benzoyl)-indole-1-carboxylic acid tert-butyl ester] | 13 nM | 18 nM | 9.6 nM | 8 nM | 19 nM | 15 nM | 37 nM | 19 nM | IC50 (KB100R): 18 nM |
| CC(=O)O[C@H]1C(=O)[C@@]2(C)[C@H]([C@H](OC(=O)c3ccccc3)[C@]3(O)C[C@H](OC(=O)[C@H](O)[C@@H](NC(=O)c4ccccc4)c4ccccc4)C(C)=C1C3(C)C)[C@]1(OC(C)=O)CO[C@@H]1C[C@@H]2O [Taxol, paclitaxel, reference compound] | 10 nM |  |  |  |  |  | 80 nM |  |  |
| COc1cc([C@@H]2c3cc4c(cc3[C@@H](O[C@@H]3O[C@@H]5CO[C@@H](C)O[C@H]5[C@H](O)[C@H]3O)[C@H]3COC(=O)[C@H]23)OCO4)cc(OC)c1O [VP-16] | 500 nM |  |  | 44000 nM |  | 3500 nM |  |  |  |
| CC[C@]1(O)C[C@H]2CN(CCc3c([nH]c4ccccc34)[C@@](C(=O)OC)(c3cc4c(cc3OC)N(C=O)[C@H]3[C@@](O)(C(=O)OC)[C@H](OC(C)=O)[C@]5(CC)C=CCN6CC[C@]43[C@@H]65)C2)C1 [Vincristine, reference compound] | 1 nM |  | 43 nM | 1920 nM | 0.6 nM | 337 nM |  | 0.5 nM |  |
